≈ marks a conversion by molar mass, not a printed value.
Key:
Format in all cases: functional, cell-based
[1] = system: KB; assay: Cytotoxicity against human KB cells by MTT assay
[2] = system: MCF7; assay: Cytotoxicity against human MCF7 cells by MTT assay
[3] = system: A549; assay: Cytotoxicity against human A549 cells by MTT assay

Compound	IC50 [1]	IC50 [2]	IC50 [3]
C/C1=C\[C@@H]2[C@H](CC[C@H](C)CC(=O)[C@@H]3O[C@]3(C)/C=C/C1=O)C2(C)C [MICROCLAVATIN]	5 µg/mL (≈ 15.8 µM)	20 µg/mL (≈ 63.2 µM)	–
C=C1C(=O)O[C@]2(C)CC[C@@H]1C[C@@H](O)[C@@](C)(O)CC/C=C(\C)CC[C@@H]2O [CAPILLOLIDE]	–	–	0.5 µg/mL (≈ 1.42 µM)

From ChEMBL document CHEMBL1141753, “Cytotoxic diterpenoids from the soft coral Sinularia microclavata” (J Nat Prod, 2005)
